Results: patent US12448389B2, “BRM targeting compounds and associated methods of use” (Prelude Therapeutics Incorporated, priority 2020, dated 2025)

Assays:
[1] = target: T1, SMARCA2-HiBiT (Homo sapiens, UniProt P51531); assay: SMARCA2 HiBiT degradation assay in HeLa cells; assay type: cell-based; conditions: 18 hours incubation; for DC50: read-out: HeLa_HiBit-SM2 DC50; for Dmax: HeLa, read-out: HeLa-HiBit-SM2 Dmax (%)
T1 construct: SMARCA2-HiBiT knock-in Hela monoclonal cell (CS302366); host or cells: HeLa monoclonal knock-in line (CRISPR HiBiT knock-in at the endogenous locus, heterozygous)
T1 sequence (P51531 whole entry): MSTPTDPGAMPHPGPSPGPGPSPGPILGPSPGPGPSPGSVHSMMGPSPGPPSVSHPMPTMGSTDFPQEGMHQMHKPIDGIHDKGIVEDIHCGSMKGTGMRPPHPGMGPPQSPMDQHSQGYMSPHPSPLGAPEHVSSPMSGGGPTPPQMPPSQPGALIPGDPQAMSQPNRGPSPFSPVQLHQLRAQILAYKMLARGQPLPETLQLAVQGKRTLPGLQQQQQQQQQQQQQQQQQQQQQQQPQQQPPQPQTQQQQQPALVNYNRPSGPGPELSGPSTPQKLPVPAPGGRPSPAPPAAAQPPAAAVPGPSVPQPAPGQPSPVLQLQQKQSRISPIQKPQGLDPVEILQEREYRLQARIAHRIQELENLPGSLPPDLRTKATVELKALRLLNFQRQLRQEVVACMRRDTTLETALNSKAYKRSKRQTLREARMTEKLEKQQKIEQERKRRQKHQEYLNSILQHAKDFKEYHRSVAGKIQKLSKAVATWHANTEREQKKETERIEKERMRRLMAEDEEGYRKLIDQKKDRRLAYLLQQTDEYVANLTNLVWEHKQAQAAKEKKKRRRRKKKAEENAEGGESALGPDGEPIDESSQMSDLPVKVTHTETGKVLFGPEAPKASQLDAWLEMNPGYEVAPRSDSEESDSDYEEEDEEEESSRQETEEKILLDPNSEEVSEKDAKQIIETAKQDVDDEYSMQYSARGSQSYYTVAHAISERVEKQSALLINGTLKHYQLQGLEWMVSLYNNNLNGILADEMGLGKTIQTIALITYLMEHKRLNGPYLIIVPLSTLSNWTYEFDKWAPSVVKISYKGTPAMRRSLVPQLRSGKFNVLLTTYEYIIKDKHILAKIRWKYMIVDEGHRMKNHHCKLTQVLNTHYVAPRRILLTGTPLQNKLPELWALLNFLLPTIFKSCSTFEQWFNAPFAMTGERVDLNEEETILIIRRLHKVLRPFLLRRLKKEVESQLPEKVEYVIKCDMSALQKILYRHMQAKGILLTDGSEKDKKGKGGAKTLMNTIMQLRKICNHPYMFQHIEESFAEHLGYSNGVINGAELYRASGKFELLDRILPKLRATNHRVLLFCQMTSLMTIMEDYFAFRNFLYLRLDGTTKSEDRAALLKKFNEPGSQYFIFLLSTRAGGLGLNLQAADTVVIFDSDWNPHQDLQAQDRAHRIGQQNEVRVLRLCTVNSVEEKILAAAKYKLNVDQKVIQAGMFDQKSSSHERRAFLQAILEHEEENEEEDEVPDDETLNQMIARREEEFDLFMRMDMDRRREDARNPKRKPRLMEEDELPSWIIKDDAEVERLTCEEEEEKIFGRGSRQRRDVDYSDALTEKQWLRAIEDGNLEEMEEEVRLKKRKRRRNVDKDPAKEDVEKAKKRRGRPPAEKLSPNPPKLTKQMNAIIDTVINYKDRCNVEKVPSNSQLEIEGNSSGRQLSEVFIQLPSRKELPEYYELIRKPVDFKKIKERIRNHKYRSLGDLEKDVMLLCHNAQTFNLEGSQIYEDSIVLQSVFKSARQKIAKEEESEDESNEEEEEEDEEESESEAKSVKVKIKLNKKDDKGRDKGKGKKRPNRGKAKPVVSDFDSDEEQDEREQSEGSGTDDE
Procedure, shortened: (§1)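 HeLa monoclonal lines with heterozygous HiBiT knock-in were seeded at 2500 cells/well in EMEM with 10% FBS and treated with compound for 18 h at 37 °C. Remaining tagged protein was measured by Nano-Glo HiBiT lytic luminescence after 30–60 min at RT, and values came from curve fitting.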

[2] = target: T2, SMARCA4-HiBiT (Homo sapiens, UniProt P51532); assay: SMARCA4 HiBiT degradation assay in HeLa cells; assay type: cell-based; conditions: 18 hours incubation; for DC50: read-out: HeLa-HiBit-SM4 DC50; for Dmax: HeLa, read-out: HeLa-HiBit-SM4 Dmax (%)
T2 construct: SMARCA4-HiBiT knock-in Hela monoclonal cell (CS3023226); host or cells: HeLa monoclonal knock-in line (CRISPR HiBiT knock-in at the endogenous locus, heterozygous)
T2 sequence (P51532 whole entry): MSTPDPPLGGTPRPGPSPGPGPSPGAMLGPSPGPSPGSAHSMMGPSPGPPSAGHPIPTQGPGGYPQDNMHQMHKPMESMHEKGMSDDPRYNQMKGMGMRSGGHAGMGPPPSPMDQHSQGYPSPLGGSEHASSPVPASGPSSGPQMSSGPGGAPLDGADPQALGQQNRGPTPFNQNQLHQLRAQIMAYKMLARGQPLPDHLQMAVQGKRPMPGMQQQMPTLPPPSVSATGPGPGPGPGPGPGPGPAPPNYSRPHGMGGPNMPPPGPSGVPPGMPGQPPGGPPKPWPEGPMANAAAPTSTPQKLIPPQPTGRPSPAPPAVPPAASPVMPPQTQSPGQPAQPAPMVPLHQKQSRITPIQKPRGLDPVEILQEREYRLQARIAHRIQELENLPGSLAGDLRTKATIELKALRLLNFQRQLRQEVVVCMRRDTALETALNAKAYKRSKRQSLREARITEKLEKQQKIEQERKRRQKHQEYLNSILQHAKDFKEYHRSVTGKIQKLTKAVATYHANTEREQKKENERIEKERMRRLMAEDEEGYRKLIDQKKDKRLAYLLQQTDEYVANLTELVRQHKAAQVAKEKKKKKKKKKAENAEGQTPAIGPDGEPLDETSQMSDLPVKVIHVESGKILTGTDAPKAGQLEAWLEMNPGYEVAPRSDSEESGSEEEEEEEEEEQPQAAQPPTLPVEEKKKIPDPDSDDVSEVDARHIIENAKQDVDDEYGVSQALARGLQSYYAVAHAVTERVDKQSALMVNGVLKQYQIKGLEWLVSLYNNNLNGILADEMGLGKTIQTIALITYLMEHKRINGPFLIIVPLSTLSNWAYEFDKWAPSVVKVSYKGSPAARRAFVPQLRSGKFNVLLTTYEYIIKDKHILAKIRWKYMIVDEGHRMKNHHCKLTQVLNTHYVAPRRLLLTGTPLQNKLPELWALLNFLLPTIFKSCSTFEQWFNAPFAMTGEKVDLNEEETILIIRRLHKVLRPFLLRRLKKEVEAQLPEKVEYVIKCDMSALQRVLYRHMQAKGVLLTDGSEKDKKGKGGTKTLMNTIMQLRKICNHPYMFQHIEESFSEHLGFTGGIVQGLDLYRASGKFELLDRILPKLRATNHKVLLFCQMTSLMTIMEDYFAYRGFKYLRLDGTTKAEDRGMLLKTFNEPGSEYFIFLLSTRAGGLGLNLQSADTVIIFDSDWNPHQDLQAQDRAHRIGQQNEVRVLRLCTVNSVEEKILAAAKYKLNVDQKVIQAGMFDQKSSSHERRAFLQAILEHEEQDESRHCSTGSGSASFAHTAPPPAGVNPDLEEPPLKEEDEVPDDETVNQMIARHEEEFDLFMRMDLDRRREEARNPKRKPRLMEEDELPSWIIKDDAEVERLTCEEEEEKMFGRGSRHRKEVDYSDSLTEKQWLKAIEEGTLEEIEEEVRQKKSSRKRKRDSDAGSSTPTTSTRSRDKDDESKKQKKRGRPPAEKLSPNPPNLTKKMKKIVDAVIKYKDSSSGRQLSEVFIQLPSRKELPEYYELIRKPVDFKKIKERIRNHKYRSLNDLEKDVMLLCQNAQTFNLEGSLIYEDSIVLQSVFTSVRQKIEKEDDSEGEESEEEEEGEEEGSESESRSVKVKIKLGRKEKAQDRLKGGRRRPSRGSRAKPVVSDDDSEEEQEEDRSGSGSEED
Procedure, shortened: as §1

Structure (SMILES) | DC50 [1] [nM] | Dmax [1] [%] | DC50 [2] [nM] | Dmax [2] [%] | HeLa-HiBit-SM2 Dmax (%) [1] | HeLa-HiBit-SM4 Dmax (%) [2]
O=C1CCC(N2C(=O)c3cccc(N4CCC(CCCN5C6CCC5CC(N5CCN7c8cc(-c9ccccc9O)nnc8NC[C@H]7C5)C6)CC4)c3C2=O)C(=O)N1 (stereo partly drawn) [Example 125, 2-(2,6-dioxopiperidin-3-yl)-4-(4-(3-(3-((S)-2-(2-hydroxyphenyl)-5,6,6a,7,9,10-hexahydro-8H-pyrazino[1′,2′:4,5]pyrazino[2,3-c]pyridazin-8-yl)-8-azabicyclo[3.2.1]octan-8-yl)propyl)piperidin-1-yl)isoindoline-1,3-dione] | < 10 | 75 to 85 | < 10 | 75 to 85 | – | –
O=C1CCC(N2C(=O)c3ccc(N4CCC(CN5CCO[C@H](CN6CCN7c8cc(-c9ccccc9O)nnc8NC[C@H]7C6)C5)CC4)cc3C2=O)C(=O)N1 (stereo partly drawn) [Example 75, 2-(2,6-dioxopiperidin-3-yl)-5-(4-(((R)-2-(((S)-2-(2-hydroxyphenyl)-5,6,6a,7,9,10-hexahydro-8H-pyrazino[1′,2′:4,5]pyrazino[2,3-c]pyridazin-8-yl)methyl)morpholino)methyl)piperidin-1-yl)isoindoline-1,3-dione] | < 10 | 75 to 85 | < 10 | 75 to 85 | – | –
O=C1CCC(N2Cc3ccc(N4CC(CN5CCC(CN6CCN7c8cc(-c9ccccc9O)nnc8NC[C@H]7C6)CC5)C4)cc3C2=O)C(=O)N1 (stereo partly drawn) [Example 276, 3-(6-(3-((4-(((S)-2-(2-hydroxyphenyl)-5,6,6a,7,9,10-hexahydro-8H-pyrazino[1′,2′:4,5]pyrazino[2,3-c]pyridazin-8-yl)methyl)piperidin-1-yl)methyl)azetidin-1-yl)-1-oxoisoindolin-2-yl) piperidine-2,6-dione] | < 10 | > 85 | < 10 | > 85 | – | –
C[C@H]1CN(CC2CCN(c3ccc4c(c3)C(=O)N(C3CCC(=O)NC3=O)C4=O)CC2)CCN1C(=O)N1CCN2c3cc(-c4ccccc4O)nnc3NC[C@H]2C1 (stereo partly drawn) [Example 116, 2-(2,6-dioxopiperidin-3-yl)-5-(4-(((S)-4-((S)-2-(2-hydroxyphenyl)-6,6a,7,8,9,10-hexahydro-5H-pyrazino[1′,2′:4,5]pyrazino[2,3-c]pyridazine-8-carbonyl)-3-methyl-piperazin-1-yl)methyl)piperidin-1-yl)isoindoline-1,3-dione] | < 10 | 75 to 85 | < 10 | 50 to 75 | – | –
O=C1CCC(N2C(=O)c3ccc(N4CC(CN5CCC(CN6CCN7c8cc(-c9ccccc9O)nnc8NC[C@H]7C6)CC5)C4)cc3C2=O)C(=O)N1 (stereo partly drawn) [Example 247, 2-(2,6-dioxopiperidin-3-yl)-5-(3-((4-(((S)-2-(2-hydroxyphenyl)-5,6,6a,7,9,10-hexahydro-8H-pyrazino[1′,2′:4,5]pyrazino[2,3-c]pyridazin-8-yl)methyl)piperidin-1-yl)methyl)azetidin-1-yl)isoindoline-1,3-dione] | < 10 | > 85 | < 10 | > 85 | – | –
O=C1CCC(N2Cc3cc(CN4CCC(CCc5cnc(N6CCN7c8cc(-c9ccccc9O)nnc8NC[C@H]7C6)nc5)CC4)ccc3C2=O)C(=O)N1 (stereo partly drawn) [Example 64, 3-(5-((4-(2-(2-((S)-2-(2-hydroxyphenyl)-5,6,6a,7,9,10-hexahydro-8H-pyrazino[1′,2′:4,5]pyrazino[2,3-c]pyridazin-8-yl)pyrimidin-5-yl)ethyl)piperidin-1-yl)methyl)-1-oxoisoindolin-2-yl)piperidine-2,6-dione] | < 10 | > 85 | < 10 | 75 to 85 | – | –
O=C1CCC(N2C(=O)c3ccc(N4CC[C@H](CN5C[C@@H]6[C@H](C5)[C@H]6CN5CCN6c7cc(-c8cc(F)ccc8O)nnc7NC[C@H]6C5)[C@@H](F)C4)cc3C2=O)C(=O)N1 (stereo partly drawn) [Example 278, 2-(2,6-dioxopiperidin-3-yl)-5-((3R,4R)-3-fluoro-4-(((1R,5S,6R)-6-(((S)-2-(5-fluoro-2-hydroxyphenyl)-5,6,6a,7,9,10-hexahydro-8H-pyrazino[1′,2′:4,5]pyrazino[2,3-c]pyridazin-8-yl)methyl)-3-azabicyclo[3.1.0]hexan-3-yl)methyl)piperidin-1-yl) isoindoline-1,3-dione] | < 10 | – | < 10 | – | A (A=Dmax>85%) | A (A=Dmax>85%)

More lines, now with the values ahead:

DC50 [1] [nM] | Dmax [1] [%] | DC50 [2] [nM] | Dmax [2] [%] | HeLa-HiBit-SM2 Dmax (%) [1] | HeLa-HiBit-SM4 Dmax (%) [2] | Structure (SMILES)
< 10 | > 85 | < 10 | > 85 | – | – | O=C1CCC(N2Cc3cc(C4CCN(C5CCCN(CCN6CCN7c8cc(-c9ccccc9O)nnc8NC[C@H]7C6)C5)CC4)ccc3C2=O)C(=O)N1 (stereo partly drawn) [Example 211, 3-(5-(1′-(2-((S)-2-(2-hydroxyphenyl)-5,6,6a,7,9,10-hexahydro-8H-pyrazino[1′,2′:4,5]pyrazino[2,3-c]pyridazin-8-yl)ethyl)-[1,3′-bipiperidin]-4-yl)-1-oxoisoindolin-2-yl)piperidine-2,6-dione]
< 10 | > 85 | < 10 | > 85 | – | – | O=C1CCC(N2C(=O)c3ccc(N4CCC(CN5CC6CC5CC6CN5CCN6c7cc(-c8ccccc8O)nnc7NC[C@H]6C5)CC4)cc3C2=O)C(=O)N1 (stereo partly drawn) [Example 136, 2-(2,6-dioxopiperidin-3-yl)-5-(4-((5-(((S)-2-(2-hydroxyphenyl)-5,6,6a,7,9,10-hexahydro-8H-pyrazino[1′,2′:4,5]pyrazino[2,3-c]pyridazin-8-yl)methyl)-2-azabicyclo[2.2.1]heptan-2-yl)methyl)piperidin-1-yl) isoindoline-1,3-dione]
< 10 | > 85 | < 10 | 50 to 75 | – | – | O=C1CC[C@@H](N2Cc3cc(OCCN4CCC(N5CCN6c7cc(-c8ccccc8O)nnc7NC[C@H]6C5)CC4)ccc3C2=O)C(=O)N1 [Example 239, (R)-3-(5-(2-(4-((S)-2-(2-hydroxyphenyl)-5,6,6a,7,9,10-hexahydro-8H-pyrazino[1′,2′:4,5]pyrazino[2,3-c]pyridazin-8-yl)piperidin-1-yl)ethoxy)-1-oxoisoindolin-2-yl)piperidine-2,6-dione]
< 10 | 75 to 85 | < 10 | 50 to 75 | – | – | O=C1CCC(N2Cc3cc(C4CCN(C5CCN(CCCN6CCN7c8cc(-c9ccccc9O)nnc8NC[C@H]7C6)C5)CC4)ccc3C2=O)C(=O)N1 (stereo partly drawn) [Example 208, 3-(5-(1-(1-(3-((S)-2-(2-hydroxyphenyl)-5,6,6a,7,9,10-hexahydro-8H-pyrazino[1′,2′:4,5]pyrazino[2,3-c]pyridazin-8-yl)propyl)pyrrolidin-3-yl)piperidin-4-yl)-1-oxoisoindolin-2-yl)piperidine-2,6-dione]
< 10 | > 85 | < 10 | > 85 | – | – | O=C1CCC(N2C(=O)c3ccc(N4CCC(CN5CCC(CN6CCN7c8cc(-c9ccccc9O)nnc8NC[C@H]7C6)CC5)CC4)cc3C2=O)C(=O)N1 (stereo partly drawn) [Example 31, 2-(2,6-dioxopiperidin-3-yl)-5-(4-((4-(((S)-2-(2-hydroxyphenyl)-5,6,6a,7,9,10-hexahydro-8H-pyrazino[1′,2′:4,5]pyrazino[2,3-c]pyridazin-8-yl)methyl)piperidin-1-yl)methyl)piperidin-1-yl)isoindoline-1,3-dione]
< 10 | > 85 | < 10 | 75 to 85 | – | – | O=C1CCC(N2C(=O)c3ccc(N4CCC(O)(CN5CCC(CN6CCN7c8cc(-c9ccccc9O)nnc8NC[C@H]7C6)CC5)CC4)cc3C2=O)C(=O)N1 (stereo partly drawn) [Example 50, 2-(2,6-dioxopiperidin-3-yl)-5-(4-hydroxy-4-((4-(((S)-2-(2-hydroxyphenyl)-5,6,6a,7,9,10-hexahydro-8H-pyrazino[1′,2′:4,5]pyrazino[2,3-c]pyridazin-8-yl)methyl)piperidin-1-yl)methyl)piperidin-1-yl)isoindoline-1,3-dione]
< 10 | 75 to 85 | < 10 | 50 to 75 | – | – | O=C1CCC(N2C(=O)c3ccc(N4CCC(CN5CC6CC6(CN6CCN7c8cc(-c9ccccc9O)nnc8NC[C@H]7C6)C5)CC4)cc3C2=O)C(=O)N1 (stereo partly drawn) [Example 172, 2-(2,6-dioxopiperidin-3-yl)-5-[4-[[1-[[(10S)-4-(2-hydroxyphenyl)-1,5,6,8,12-pentazatricyclo[8.4.0.02,7]tetradeca-2,4,6-trien-12-yl]methyl]-3-azabicyclo[3.1.0]hexan-3-yl]methyl]piperidin-1-yl]isoindole-1,3-dione]
< 10 | > 85 | < 10 | > 85 | – | – | O=C1CCC(N2C(=O)c3ccc(N4CC(CN5C[C@@H]6[C@H](C5)[C@H]6CN5CCN6c7cc(-c8ccccc8O)nnc7NC[C@H]6C5)C4)cc3C2=O)C(=O)N1 (stereo partly drawn) [Example 109, 2-(2,6-dioxopiperidin-3-yl)-5-(3-(((1R,5S,6r)-6-(((S)-2-(2-hydroxyphenyl)-5,6,6a,7,9,10-hexahydro-8H-pyrazino[1′,2′:4,5]pyrazino[2,3-c]pyridazin-8-yl)methyl)-3-azabicyclo[3.1.0]hexan-3-yl)methyl)azetidin-1-yl)isoindoline-1,3-dione]
< 10 | > 85 | < 10 | > 85 | – | – | O=C1CCC(N2C(=O)c3cccc(N4CCN(CCCN5CCC(N6CCN7c8cc(-c9ccccc9O)nnc8NC[C@H]7C6)CC5)CC4)c3C2=O)C(=O)N1 (stereo partly drawn) [Example 69, 2-(2,6-dioxopiperidin-3-yl)-4-(4-(3-(4-((S)-2-(2-hydroxyphenyl)-5,6,6a,7,9,10-hexahydro-8H-pyrazino[1′,2′:4,5]pyrazino[2,3-c]pyridazin-8-yl)piperidin-1-yl)propyl)piperazin-1-yl)isoindoline-1,3-dione]
